In the NIST ThermoML archive (doi:10.1016/j.jct.2018.08.013):
Values joined by “and” are separate entries in the source; they are usually repeats but may differ in a detail not shown here. Equal entries are not always repeated.

Key:
[1] = specific heat capacity at constant pressure; xn = mol fraction of the nth substance listed; details: 100 kPa, Crystal of intercomponent compound 1, x2 = 0.493
[2] = xn = mol fraction of the nth substance listed; details: 298 K; 100 kPa; Crystal of intercomponent compound 1; X-ray diffraction; x2 = 0.493

[S] [sulfur] + [Ga]
[1]
Details | specific heat capacity
18.16 K, relaxation calorimetry | 12.05 J/K/kg
18.18 K, relaxation calorimetry | 12.12 J/K/kg
20.17 K, relaxation calorimetry | 16.52 J/K/kg
20.2 K, relaxation calorimetry | 16.6 J/K/kg
22.19 K, relaxation calorimetry | 21.61 J/K/kg
22.22 K, relaxation calorimetry | 21.71 J/K/kg and 21.72 J/K/kg
24.21 K, relaxation calorimetry | 27.33 J/K/kg
24.24 K, relaxation calorimetry | 27.43 J/K/kg and 27.44 J/K/kg
26.24 K, relaxation calorimetry | 33.49 J/K/kg
26.26 K, relaxation calorimetry | 33.58 J/K/kg
28.24 K, relaxation calorimetry | 39.83 J/K/kg
28.26 K, relaxation calorimetry | 39.94 J/K/kg
28.27 K, relaxation calorimetry | 39.95 J/K/kg
30.29 K, relaxation calorimetry | 46.52 J/K/kg and 46.51 J/K/kg
35.28 K, relaxation calorimetry | 63.34 J/K/kg
35.34 K, relaxation calorimetry | 63.61 J/K/kg and 63.51 J/K/kg
40.32 K, relaxation calorimetry | 80.08 J/K/kg
40.39 K, relaxation calorimetry | 80.21 J/K/kg
40.4 K, relaxation calorimetry | 80.32 J/K/kg
45.38 K, relaxation calorimetry | 96.1 J/K/kg
45.44 K, relaxation calorimetry | 96.06 J/K/kg
45.46 K, relaxation calorimetry | 96.26 J/K/kg
50.44 K, relaxation calorimetry | 111.7 J/K/kg
50.47 K, relaxation calorimetry | 111.6 J/K/kg
50.51 K, relaxation calorimetry | 111.7 J/K/kg
55.47 K, relaxation calorimetry | 126.24 J/K/kg
55.51 K, relaxation calorimetry | 125.95 J/K/kg
55.55 K, relaxation calorimetry | 126.24 J/K/kg
60.51 K, relaxation calorimetry | 140.09 J/K/kg
60.55 K, relaxation calorimetry | 139.99 J/K/kg
60.58 K, relaxation calorimetry | 139.99 J/K/kg
65.57 K, relaxation calorimetry | 154.14 J/K/kg
65.59 K, relaxation calorimetry | 154.04 J/K/kg
65.63 K, relaxation calorimetry | 154.04 J/K/kg
70.62 K, relaxation calorimetry | 167.6 J/K/kg
70.63 K, relaxation calorimetry | 167.6 J/K/kg
70.66 K, relaxation calorimetry | 167.5 J/K/kg
75.65 K, relaxation calorimetry | 180.57 J/K/kg
75.68 K, relaxation calorimetry | 180.86 J/K/kg
75.7 K, relaxation calorimetry | 180.47 J/K/kg
80.7 K, relaxation calorimetry | 194.32 J/K/kg
80.73 K, relaxation calorimetry | 194.42 J/K/kg
80.74 K, relaxation calorimetry | 194.32 J/K/kg
85.74 K, relaxation calorimetry | 207.39 J/K/kg
85.77 K, relaxation calorimetry | 207.39 J/K/kg
85.78 K, relaxation calorimetry | 207.39 J/K/kg
90.77 K, relaxation calorimetry | 220.55 J/K/kg
90.8 K, relaxation calorimetry | 220.26 J/K/kg and 220.45 J/K/kg
95.75 K, relaxation calorimetry | 232.24 J/K/kg
95.79 K, relaxation calorimetry | 231.95 J/K/kg
95.82 K, relaxation calorimetry | 231.85 J/K/kg
100.8 K, relaxation calorimetry | 243.64 J/K/kg
100.86 K, relaxation calorimetry | 242.85 J/K/kg
100.91 K, relaxation calorimetry | 243.05 J/K/kg
106.88 K, relaxation calorimetry | 257.1 J/K/kg and 257.39 J/K/kg
107.03 K, relaxation calorimetry | 256.21 J/K/kg
113.66 K, relaxation calorimetry | 272.42 J/K/kg
113.82 K, relaxation calorimetry | 273.11 J/K/kg
113.94 K, relaxation calorimetry | 271.54 J/K/kg
120.64 K, relaxation calorimetry | 286.47 J/K/kg
120.83 K, relaxation calorimetry | 286.96 J/K/kg
120.89 K, relaxation calorimetry | 285.1 J/K/kg
127.82 K, relaxation calorimetry | 298.56 J/K/kg
127.84 K, relaxation calorimetry | 298.36 J/K/kg
134.78 K, relaxation calorimetry | 310.93 J/K/kg
134.8 K, relaxation calorimetry | 310.34 J/K/kg
134.81 K, relaxation calorimetry | 310.25 J/K/kg
141.61 K, relaxation calorimetry | 324 J/K/kg
141.75 K, relaxation calorimetry | 322.43 J/K/kg
141.83 K, relaxation calorimetry | 321.94 J/K/kg
148.61 K, relaxation calorimetry | 333.53 J/K/kg
148.72 K, relaxation calorimetry | 332.15 J/K/kg
148.84 K, relaxation calorimetry | 330.48 J/K/kg
155.54 K, relaxation calorimetry | 342.37 J/K/kg
155.64 K, relaxation calorimetry | 340.7 J/K/kg
155.72 K, relaxation calorimetry | 339.33 J/K/kg
162.61 K, relaxation calorimetry | 350.82 J/K/kg
162.66 K, relaxation calorimetry | 349.74 J/K/kg
162.73 K, relaxation calorimetry | 349.64 J/K/kg
169.57 K, relaxation calorimetry | 360.25 J/K/kg
169.65 K, relaxation calorimetry | 358.19 J/K/kg
169.72 K, relaxation calorimetry | 359.07 J/K/kg
176.58 K, relaxation calorimetry | 367.72 J/K/kg
176.67 K, relaxation calorimetry | 367.72 J/K/kg
176.69 K, relaxation calorimetry | 362.51 J/K/kg
183.46 K, relaxation calorimetry | 377.05 J/K/kg
183.56 K, relaxation calorimetry | 375.87 J/K/kg
183.6 K, relaxation calorimetry | 370.67 J/K/kg
190.49 K, relaxation calorimetry | 383.83 J/K/kg
190.59 K, relaxation calorimetry | 383.53 J/K/kg
190.65 K, relaxation calorimetry | 378.13 J/K/kg
197.48 K, relaxation calorimetry | 388.94 J/K/kg
197.53 K, relaxation calorimetry | 389.63 J/K/kg
197.63 K, relaxation calorimetry | 385.2 J/K/kg
204.39 K, relaxation calorimetry | 394.64 J/K/kg
204.41 K, relaxation calorimetry | 396.21 J/K/kg
204.53 K, relaxation calorimetry | 392.18 J/K/kg
211.42 K, relaxation calorimetry | 400.83 J/K/kg
211.46 K, relaxation calorimetry | 401.71 J/K/kg
211.56 K, relaxation calorimetry | 397.19 J/K/kg
218.3 K, relaxation calorimetry | 405.64 J/K/kg
218.34 K, relaxation calorimetry | 407.41 J/K/kg
218.45 K, relaxation calorimetry | 402.99 J/K/kg
225.38 K, relaxation calorimetry | 410.35 J/K/kg and 412.32 J/K/kg
225.51 K, relaxation calorimetry | 408.68 J/K/kg
232.24 K, relaxation calorimetry | 414.68 J/K/kg and 416.64 J/K/kg
232.38 K, relaxation calorimetry | 412.81 J/K/kg
239.31 K, relaxation calorimetry | 418.61 J/K/kg and 420.57 J/K/kg
239.44 K, relaxation calorimetry | 416.94 J/K/kg
246.17 K, relaxation calorimetry | 422.44 J/K/kg
246.31 K, relaxation calorimetry | 420.96 J/K/kg
253.25 K, relaxation calorimetry | 426.56 J/K/kg
253.26 K, relaxation calorimetry | 424.99 J/K/kg
253.37 K, relaxation calorimetry | 424.7 J/K/kg
260.11 K, relaxation calorimetry | 428.53 J/K/kg and 430.1 J/K/kg
260.22 K, relaxation calorimetry | 427.94 J/K/kg
260.51 K, Extra sensitive DSC | 429.81 J/K/kg
263.12 K, Extra sensitive DSC | 432.26 J/K/kg
265.73 K, Extra sensitive DSC | 432.66 J/K/kg
267.18 K, relaxation calorimetry | 432.16 J/K/kg and 433.25 J/K/kg
267.28 K, relaxation calorimetry | 431.28 J/K/kg
268.33 K, Extra sensitive DSC | 434.33 J/K/kg
270.07 K, Extra sensitive DSC | 435.41 J/K/kg
273.54 K, Extra sensitive DSC | 436.78 J/K/kg
274.03 K, relaxation calorimetry | 435.6 J/K/kg and 437.27 J/K/kg
274.12 K, relaxation calorimetry | 434.33 J/K/kg
276.15 K, Extra sensitive DSC | 437.37 J/K/kg
279.62 K, Extra sensitive DSC | 439.04 J/K/kg
281.12 K, relaxation calorimetry | 440.32 J/K/kg
281.13 K, relaxation calorimetry | 440.12 J/K/kg
281.19 K, relaxation calorimetry | 438.35 J/K/kg
283.09 K, Extra sensitive DSC | 440.42 J/K/kg
285.7 K, Extra sensitive DSC | 441.4 J/K/kg
287.94 K, relaxation calorimetry | 442.87 J/K/kg
287.95 K, relaxation calorimetry | 442.09 J/K/kg
288.02 K, relaxation calorimetry | 441.2 J/K/kg
289.17 K, Extra sensitive DSC | 442.77 J/K/kg
292.64 K, Extra sensitive DSC | 444.15 J/K/kg
295 K, relaxation calorimetry | 443.07 J/K/kg and 444.35 J/K/kg
295.08 K, relaxation calorimetry | 443.46 J/K/kg
295.25 K, Extra sensitive DSC | 444.64 J/K/kg
297.85 K, Extra sensitive DSC | 445.72 J/K/kg
300.45 K, Extra sensitive DSC | 446.61 J/K/kg
301.99 K, relaxation calorimetry | 450.73 J/K/kg
302 K, relaxation calorimetry | 450.83 J/K/kg
302.09 K, relaxation calorimetry | 445.23 J/K/kg
303.06 K, Extra sensitive DSC | 447.88 J/K/kg
305.66 K, Extra sensitive DSC | 448.77 J/K/kg
308.26 K, Extra sensitive DSC | 449.75 J/K/kg
310.87 K, Extra sensitive DSC | 450.44 J/K/kg
313.47 K, Extra sensitive DSC | 451.52 J/K/kg
315.21 K, Extra sensitive DSC | 452.11 J/K/kg
317.81 K, Extra sensitive DSC | 452.3 J/K/kg
320.41 K, Extra sensitive DSC | 453.09 J/K/kg
323.02 K, Extra sensitive DSC | 453.29 J/K/kg
325.62 K, Extra sensitive DSC | 454.17 J/K/kg
328.23 K, Extra sensitive DSC | 455.45 J/K/kg
329.96 K, Extra sensitive DSC | 455.35 J/K/kg
332.56 K, Extra sensitive DSC | 455.84 J/K/kg
335.17 K, Extra sensitive DSC | 456.53 J/K/kg
337.77 K, Extra sensitive DSC | 457.22 J/K/kg
340.38 K, Extra sensitive DSC | 458.2 J/K/kg
342.98 K, Extra sensitive DSC | 459.18 J/K/kg
345.58 K, Extra sensitive DSC | 459.28 J/K/kg
348.19 K, Extra sensitive DSC | 460.46 J/K/kg
350.79 K, Extra sensitive DSC | 461.15 J/K/kg
353.39 K, Extra sensitive DSC | 460.75 J/K/kg
356 K, Extra sensitive DSC | 461.93 J/K/kg
358.6 K, Extra sensitive DSC | 462.72 J/K/kg

Details | mass density [kg/m3]
[2] | 3910
